This is an account of results in the supplement of paper PMC11208160.

A short description of the series: recombinant barcode read abundance after kanamycin selection (control-corrected) (log10(CPM+1)); higher = more efficient recombination; sequences stand for … in AGTGCAGAGAAAATCGGCCAGTTTTCTCTGCCTGCAGTCCGCATGCCGT…ATTTATGCAGCGGACTGCCTTTCTCCCAAAGTGATAAACCGGACAGTATCATGGACCGGTTTTCCCGGTAATCCGTATTTGCAAGGTTGGTTTCACT; site = the 11-nt target. The method in brief:
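Reported as log10(CPM+1), each value stands for recombination efficiency. That efficiency is the averaged, control-corrected counts per million of barcodes found at recombinant junctions. Cells from a pooled E. coli library pairing targets with IS621 bridge RNA target-binding loops were plated twice on chloramphenicol/ampicillin LB agar (control) and twice on chloramphenicol/ampicillin/kanamycin with 0.1 mM IPTG.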

“GAGCCCATGTGGGTTCTAACCTGTTGCCTAG [GAGCCCACTAG_LTGcore_TG_RTGcore_CT] (site GAGCCCACTAG) (LTG core: TG, RTG core: CT)”: the “recombinant barcode read abundance (log10)” value is 0.0858. In the case of “GAGCCCATTTGGGTTCTAACCTGTTGCCTAG [GAGCCCACTAG_LTGcore_TT_RTGcore_CT] (site GAGCCCACTAG) (LTG core: TT, RTG core: CT)” it was 0.0489.

As for “GAGGCCTAATGGGTTCTAACCTGTTGCCAAG [GAGGCCTCTTG_LTGcore_AA_RTGcore_CT] (site GAGGCCTCTTG) (LTG core: AA, RTG core: CT)”, the “recombinant barcode read abundance (log10)” value stood at 0.153.

As to “GAGGCCTAGTGGGTTCTAACCTGTTGCCAAG [GAGGCCTCTTG_LTGcore_AG_RTGcore_CT] (site GAGGCCTCTTG) (LTG core: AG, RTG core: CT)”, the “recombinant barcode read abundance (log10)” value was 0.106. The same measure for “GAGGCCTAGTGGGTTCTAACCTGTTGCCACT [GAGGCCTCTTG_LTGcore_AG_RTGcore_AG] (site GAGGCCTCTTG) (LTG core: AG, RTG core: AG)”: 0.159; for “GAGGCCTCGTGGGTTCTAACCTGTTGCCAAG [GAGGCCTCTTG_LTGcore_CG_RTGcore_CT] (site GAGGCCTCTTG) (LTG core: CG, RTG core: CT)”: 0.218. In the case of “GAGGCCTCTTGGGTTCTAACCTGTTGCCAAG [GAGGCCTCTTG_LTGcore_CT_RTGcore_CT] (site GAGGCCTCTTG) (LTG core: CT, RTG core: CT)” it was 1.82. In the case of “GAGGCCTCTTGGGTTCTAACCTGTTGCCACA [GAGGCCTCTTG_LTGcore_CT_RTGcore_TG] (site GAGGCCTCTTG) (LTG core: CT, RTG core: TG)” it was 0.453; in that of “GAGGCCTCTTGGGTTCTAACCTGTTGCCACT [GAGGCCTCTTG_LTGcore_CT_RTGcore_AG] (site GAGGCCTCTTG) (LTG core: CT, RTG core: AG)”, 0.379. Consider “GAGGCCTCTTGGGTTCTAACCTGTTGCCAGG [GAGGCCTCTTG_LTGcore_CT_RTGcore_CC] (site GAGGCCTCTTG) (LTG core: CT, RTG core: CC)”, for which the “recombinant barcode read abundance (log10)” value came out at 0.236. Take “GAGGCCTCTTGGGTTCTAACCTGTTGCCAGT [GAGGCCTCTTG_LTGcore_CT_RTGcore_AC] (site GAGGCCTCTTG) (LTG core: CT, RTG core: AC)”: the “recombinant barcode read abundance (log10)” value was determined as 0.0794. In the case of “GAGGCCTCTTGGGTTCTAACCTGTTGCCATA [GAGGCCTCTTG_LTGcore_CT_RTGcore_TA] (site GAGGCCTCTTG) (LTG core: CT, RTG core: TA)”, the “recombinant barcode read abundance (log10)” value was 0.267.

Consider “GAGGCCTCTTGGGTTCTAACCTGTTGCCATC [GAGGCCTCTTG_LTGcore_CT_RTGcore_GA] (site GAGGCCTCTTG) (LTG core: CT, RTG core: GA)”, for which the “recombinant barcode read abundance (log10)” value came to 0.252.

Regarding “GAGGCCTGTTGGGTTCTAACCTGTTGCCAAC [GAGGCCTCTTG_LTGcore_GT_RTGcore_GT] (site GAGGCCTCTTG) (LTG core: GT, RTG core: GT)”, the “recombinant barcode read abundance (log10)” value is 0.104. Consider “GAGGCCTTCTGGGTTCTAACCTGTTGCCAAG [GAGGCCTCTTG_LTGcore_TC_RTGcore_CT] (site GAGGCCTCTTG) (LTG core: TC, RTG core: CT)”, for which the “recombinant barcode read abundance (log10)” value amounted to 0.0445. “GAGGCCTTCTGGGTTCTAACCTGTTGCCAGA [GAGGCCTCTTG_LTGcore_TC_RTGcore_TC] (site GAGGCCTCTTG) (LTG core: TC, RTG core: TC)”: the “recombinant barcode read abundance (log10)” value stood at 0.104.

For “GAGGCCTTGTGGGTTCTAACCTGTTGCCACA [GAGGCCTCTTG_LTGcore_TG_RTGcore_TG] (site GAGGCCTCTTG) (LTG core: TG, RTG core: TG)”, the “recombinant barcode read abundance (log10)” value was 0.014. The same measure for “GAGGCCTTTTGGGTTCTAACCTGTTGCCAAA [GAGGCCTCTTG_LTGcore_TT_RTGcore_TT] (site GAGGCCTCTTG) (LTG core: TT, RTG core: TT)”: 0.0543; for “GAGTCCAATTGGGTTCTAACCTGTTGCGTAT [GAGTCCACTAC_LTGcore_AT_RTGcore_AT] (site GAGTCCACTAC) (LTG core: AT, RTG core: AT)”: 0.0548. Take “GAGTCCACATGGGTTCTAACCTGTTGCGTTG [GAGTCCACTAC_LTGcore_CA_RTGcore_CA] (site GAGTCCACTAC) (LTG core: CA, RTG core: CA)”: the “recombinant barcode read abundance (log10)” value stood at 0.022. The same measure for “GAGTCCACTTGGGTTCTAACCTGTTGCGTAA [GAGTCCACTAC_LTGcore_CT_RTGcore_TT] (site GAGTCCACTAC) (LTG core: CT, RTG core: TT)”: 0.027. In the case of “GAGTCCAGGTGGGTTCTAACCTGTTGCGTAG [GAGTCCACTAC_LTGcore_GG_RTGcore_CT] (site GAGTCCACTAC) (LTG core: GG, RTG core: CT)”, the “recombinant barcode read abundance (log10)” value is 0.689. In the case of “GAGTCCATGTGGGTTCTAACCTGTTGCGTCA [GAGTCCACTAC_LTGcore_TG_RTGcore_TG] (site GAGTCCACTAC) (LTG core: TG, RTG core: TG)” it was 0.101; in that of “GAGTCCTCATGGGTTCTAACCTGTTGCCTTG [GAGTCCTCTAG_LTGcore_CA_RTGcore_CA] (site GAGTCCTCTAG) (LTG core: CA, RTG core: CA)”, 0.185; in that of “GAGTCCTCCTGGGTTCTAACCTGTTGCCTAG [GAGTCCTCTAG_LTGcore_CC_RTGcore_CT] (site GAGTCCTCTAG) (LTG core: CC, RTG core: CT)”, 0.191. The same measure for “GAGTCCTCGTGGGTTCTAACCTGTTGCCTCG [GAGTCCTCTAG_LTGcore_CG_RTGcore_CG] (site GAGTCCTCTAG) (LTG core: CG, RTG core: CG)”: 0.0506; for “GAGTCCTCTTGGGTTCTAACCTGTTGCCTAG [GAGTCCTCTAG_LTGcore_CT_RTGcore_CT] (site GAGTCCTCTAG) (LTG core: CT, RTG core: CT)”: 2.17. For the sequence “GAGTCCTCTTGGGTTCTAACCTGTTGCCTGA [GAGTCCTCTAG_LTGcore_CT_RTGcore_TC] (site GAGTCCTCTAG) (LTG core: CT, RTG core: TC)”, the “recombinant barcode read abundance (log10)” value was determined as 1.3. On to “GAGTCCTCTTGGGTTCTAACCTGTTGCCTTA [GAGTCCTCTAG_LTGcore_CT_RTGcore_TA] (site GAGTCCTCTAG) (LTG core: CT, RTG core: TA)”, for which the “recombinant barcode read abundance (log10)” value is 1.48. In the case of “GAGTCCTCTTGGGTTCTAACCTGTTGCCTTC [GAGTCCTCTAG_LTGcore_CT_RTGcore_GA] (site GAGTCCTCTAG) (LTG core: CT, RTG core: GA)” it was 1.24. As for “GAGTCCTGCTGGGTTCTAACCTGTTGCCTGC [GAGTCCTCTAG_LTGcore_GC_RTGcore_GC] (site GAGTCCTCTAG) (LTG core: GC, RTG core: GC)”, the “recombinant barcode read abundance (log10)” value came to 0.333.

Turning to “GAGTCCTGTTGGGTTCTAACCTGTTGCCTAC [GAGTCCTCTAG_LTGcore_GT_RTGcore_GT] (site GAGTCCTCTAG) (LTG core: GT, RTG core: GT)”, the “recombinant barcode read abundance (log10)” value amounted to 0.0554. In the case of “GAGTCCTTATGGGTTCTAACCTGTTGCCTAG [GAGTCCTCTAG_LTGcore_TA_RTGcore_CT] (site GAGTCCTCTAG) (LTG core: TA, RTG core: CT)” it was 0.414. The same measure for “GCGCGACACTGGGTTCTAACCTGTTGCTTGT [GCGCGACCTAA_LTGcore_AC_RTGcore_AC] (site GCGCGACCTAA) (LTG core: AC, RTG core: AC)”: 0.147; for “GCGCGACCATGGGTTCTAACCTGTTGCTTAG [GCGCGACCTAA_LTGcore_CA_RTGcore_CT] (site GCGCGACCTAA) (LTG core: CA, RTG core: CT)”: 0.422. The same measure for “GCGCGACCCTGGGTTCTAACCTGTTGCTTAG [GCGCGACCTAA_LTGcore_CC_RTGcore_CT] (site GCGCGACCTAA) (LTG core: CC, RTG core: CT)”: 0.907; for “GCGCGACCTTGGGTTCTAACCTGTTGCTTGC [GCGCGACCTAA_LTGcore_CT_RTGcore_GC] (site GCGCGACCTAA) (LTG core: CT, RTG core: GC)”: 0.0896; for “GCGCGACCTTGGGTTCTAACCTGTTGCTTGT [GCGCGACCTAA_LTGcore_CT_RTGcore_AC] (site GCGCGACCTAA) (LTG core: CT, RTG core: AC)”: 0.0798. As to “GCGCGACCTTGGGTTCTAACCTGTTGCTTTC [GCGCGACCTAA_LTGcore_CT_RTGcore_GA] (site GCGCGACCTAA) (LTG core: CT, RTG core: GA)”, the “recombinant barcode read abundance (log10)” value was determined as 0.07.

In the case of “GCGCGACGATGGGTTCTAACCTGTTGCTTAG [GCGCGACCTAA_LTGcore_GA_RTGcore_CT] (site GCGCGACCTAA) (LTG core: GA, RTG core: CT)”, the “recombinant barcode read abundance (log10)” value was found to be 0.0201. The same measure for “GCGCGACGCTGGGTTCTAACCTGTTGCTTAG [GCGCGACCTAA_LTGcore_GC_RTGcore_CT] (site GCGCGACCTAA) (LTG core: GC, RTG core: CT)”: 0.0605; for “GCGCGACGGTGGGTTCTAACCTGTTGCTTAG [GCGCGACCTAA_LTGcore_GG_RTGcore_CT] (site GCGCGACCTAA) (LTG core: GG, RTG core: CT)”: 0.048. On to “GCGGGACAATGGGTTCTAACCTGTTGCCTTT [GCGGGACCTAG_LTGcore_AA_RTGcore_AA] (site GCGGGACCTAG) (LTG core: AA, RTG core: AA)”, for which the “recombinant barcode read abundance (log10)” value stood at 0.119.
